The values that follow come from patent US6495563B1, “Method and composition for prevention of scar formation in glaucoma filtration bleb and drainage fistula” (Synphora AB, priority 1999, dated 2002).

Marks after values point to notes of the source that are not given here.

Broadly, the EC50 is the concentration needed to bring the measured effect to its halfway point.

The test system of one data set is Human fibroblasts. Put plainly: Antiproliferative effect on cultured human fibroblasts (crystal violet absorbance as measure of cell number). The following applies: for EC50 value for reducing cell number / EC50: 5-7 days of culture, crystal violet absorbance at 595 nm; for EC50: read-out: EC50 value for reducing cell number; for Effect on cell number of the cultures (decrease in crystal violet absorbance): 10^−6 to 10^−3 Moles/l, 5-7 days. In kind it is cell-based. The method, then:
The following prostaglandins, purchased from Cayman Chemicals, Ann Arbor, Mich., USA, and Biomol Feinchemikalien GmbH, Hamburg, Germany were used in the experiments: prostaglandin A1 (PGA1), prostaglandin A2 (PGA2), prostaglandin J2 (PGJ2) and 15-deoxy-Δ^12,14-prostaglandin J2 (15-Δ^12,14-PGJ2). The chemical structures of the test compounds are depicted in FIG. 1. All test compounds were stored at −20° C., and fresh solutions containing the appropriate concentrations of the test compounds were made every second day. The test compounds were initially dissolved in ethanol and then diluted in the culture medium.
Human fibroblasts were used at passage 22-24. The culture medium consisted of DMEM with 10% fetal calf serum and 50 μg/ml gentamycin. Around 10,000 cells were seeded into each well of 48 well microtiter plates. The total volume of culture medium was about 250 μl/well. The cells were incubated at 37° C. with 5% CO2 humidified air. The culture medium was changed every second day, and at the same time new, freshly prepared prostaglandin was added to the medium. The test compounds were investigated at several concentrations in the range of 10^−6 to 10^−3 Moles/l. […] The concentrations in the figures depicting the results are expressed as the negative logarithm The culture medium alone served as control. After 5-7 days of culture the experiment was terminated by fixation of the cells in 1% glutaraldehyde. The cells were then stained with 0.1% crystal violet, and the stain was eluted with 2.5% sodium lauryl sulphate. The absorbance of the colored solutions was determined spectrophotometrically. Each experiment was performed at least in duplicate.

Data set [1] relates to New Zealand White adult rabbits. Kind of data set: Intraocular pressure after modified trabeculectomy surgery in rabbits with topical eye drops. In kind it is in vivo, rabbit. Here is the method: Ten New Zealand White adult rabbits underwent modified unilateral trabeculectomy surgery and were treated with corticosteroids and mydriatics postoperatively for about one month according to a clinical protocol. Starting the same day as the surgery was performed, the operated eye in five animals was in addition treated twice daily with PGA2-IE eye drops (10 μg/dose) for 4 months, while in the other five animals the operated eye was treated with vehicle only for the same period of time. The intraocular pressure was measured throughout the treatment period at least every second week. […] From FIG. 4 it is apparent that the difference in intraocular pressure between the vehicle-treated operated and control eyes steadily diminished with time which was quite opposite to the difference in traocular pressure between the PGA2-IE-treated operated and control eyes in FIG. 5. Thus it appears that even during this short treatment period (4 months) a difference in the level of intraocular pressure reduction between the PGA2-IE treated and vehicle-treated operated eyes is manifested, and at the end of the treatment period the difference in intraocular pressure reduction was statistically significant (p<0.05) (Table 1).

Data set [2] has the same test system. Put plainly: Postsurgical intraocular inflammation after extracapsular lens extraction in rabbits. In kind it is in vivo, rabbit. The note with it: 10 μg/dose twice daily; for Number of animals, operated eye Normal / Number of animals, operated eye Inflamed: 5 animals. The source says:
Ten New Zealand White adult rabbits underwent extracapsular lens extraction in one eye to investigate the effect of PGA2-E on postsurgical inflammation. Lens extraction was used as a model since this procedure is always followed by some inflammatory changes. The contralateral eye was used as an untreated control eye in each animal. The operated eyes were given routine postsurgical treatment with corticosteroids and mydriatics for about one month. From the day after the surgery and for a total of 4 months 5 of the animals were treated with PGA2-IE eye drops twice daily (10 μg/dose) in the operated eye while the contralateral control (non-operated) eye received no treatment. The other 5 animals were treated with the vehicle only twice daily for the same period of time. […] The signs of inflammation comprised miosis, iridial hyperemia, flare and fibrin accumulation in the anterior chamber, and additional anti-inflammatory medication had to be given to these animals.

Turning to `CCCCC[C@H](O)/C=C/[C@H]1C(=O)C=C[C@@H]1C/C=C\CCCC(=O)O` [PGJ2, prostaglandin J2], in the data set on Human fibroblasts, the “EC50 value for reducing cell number” value is listed as “about −4.75 log units”, the EC50 is about 20 µM and the “Effect on cell number of the cultures (decrease in crystal violet absorbance)” value (“Effect … (decrease in crystal violet absorbance)” for short) is on record as “effectively reduced the cell number”.

With `CCCCC/C=C/C=C1/C(=O)C=C[C@@H]1C/C=C\CCCC(=O)O` [15-deoxy-Δ^12,14-PGJ2, 15-deoxy-Δ^12,14-prostaglandin J2], the “Effect … (decrease in crystal violet absorbance)” value in the data set with Human fibroblasts is given as “effectively reduced the cell number”.

On to `CCCCC[C@H](O)/C=C/[C@H]1C=CC(=O)[C@@H]1C/C=C\CCCC(=O)OC(C)C` [PGA2-IE, PGA2-isopropyl ester], for which, in data set [1] (4 months, 10 μg/dose twice daily), the “Maintenance of the intraocular pressure at a reduced level after surgery compared with vehicle” value was “clear tendency towards better maintenance of the intraocular pressure at a reduced level”. Besides, in data set [1] (4 months, 10 μg/dose twice daily topical), the “Adverse effects in the eye (local inflammation or increased intraocular pressure)” value is given as “no adversarial effects in the eye”. In data set [1] (end of 4 month treatment, 10 μg/dose twice daily eye drops, n=5), the “Intraocular pressure, operated eye” value is reported as 17.2 ± 2.9 mmHg. Besides, the “Intraocular pressure, difference between control eye and operated eye” value in data set [1] (end of 4 month treatment, 10 μg/dose twice daily eye drops, n=5, p<0.05 vs vehicle group) was 3.8 ± 1.0 mmHg. The “Number of animals, operated eye Normal” value in data set [2] (2 months after surgery) was determined as 3; in data set [2] (4 months after surgery), 4. The “Number of animals, operated eye Inflamed” value is recorded as 2* in data set [2] (2 months after surgery, one only slightly inflamed) and 1 in data set [2] (4 months after surgery). In data set [2] (4 month treatment), the “Anti-inflammatory effect in the eye” value is “remarkable anti-inflammatory effect”.

Turning to `CCCCC[C@H](O)/C=C/[C@H]1C=CC(=O)[C@@H]1C/C=C\CCCC(=O)O` [PGA2, prostaglandin A2], in the data set with Human fibroblasts, the “EC50 value for reducing cell number” value is given as “around −5.5 log units”, the 50% effective concentration (EC50) was about 3 µM and the “Effect … (decrease in crystal violet absorbance)” value is on record as “effectively reduced the cell number”.

In the case of `CCCCC[C@H](O)/C=C/[C@H]1C=CC(=O)[C@@H]1CCCCCCC(=O)O` [PGA1, prostaglandin A1], the “Effect … (decrease in crystal violet absorbance)” value in the data set with Human fibroblasts is listed as “effectively reduced the cell number”.
